Results: ChEMBL document CHEMBL4837183, “Antiproliferative Bufadienolides from the Bulbs of Drimia altissima” (2021)

Experiments:
Format in all cases: functional
[1] = system: SR; assay: Growth inhibition of human SR cells measured after 48 hrs by SRB assay
[2] = system: U-251; assay: Growth inhibition of human U-251 cells measured after 48 hrs by SRB assay
[3] = system: Hs-578T; assay: Growth inhibition of human Hs-578T cells measured after 48 hrs by SRB assay
[4] = system: CCRF-CEM; assay: Growth inhibition of human CCRF-CEM cells measured after 48 hrs by SRB assay
[5] = system: MDA-MB-468; assay: Growth inhibition of human MDA-MB-468 cells measured after 48 hrs by SRB assay
[6] = system: K562; assay: Growth inhibition of human K562 cells measured after 48 hrs by SRB assay
[7] = system: MCF7; assay: Growth inhibition of human MCF7 cells measured after 48 hrs by SRB assay
[8] = system: TK-10; assay: Growth inhibition of human TK-10 cells measured after 48 hrs by SRB assay
[9] = system: DU-145; assay: Growth inhibition of human DU-145 cells measured after 48 hrs by SRB assay
[10] = system: HT-29; assay: Growth inhibition of human HT-29 cells measured after 48 hrs by SRB assay
[11] = system: SNB-19; assay: Growth inhibition of human SNB-19 cells measured after 48 hrs by SRB assay
[12] = system: OVCAR-8; assay: Growth inhibition of human OVCAR-8 cells measured after 48 hrs by SRB assay
[13] = system: HOP-62; assay: Growth inhibition of human HOP-62 cells measured after 48 hrs by SRB assay
[14] = system: LOX IMVI; assay: Growth inhibition of human LOX IMVI cells measured after 48 hrs by SRB assay
[15] = system: ACHN; assay: Growth inhibition of human ACHN cells measured after 48 hrs by SRB assay
[16] = system: BT-549; assay: Growth inhibition of human BT-549 cells measured after 48 hrs by SRB assay
[17] = system: OVCAR-5; assay: Growth inhibition of human OVCAR-5 cells measured after 48 hrs by SRB assay
[18] = system: COLO 205; assay: Growth inhibition of human COLO 205 cells measured after 48 hrs by SRB assay
[19] = system: A498; assay: Growth inhibition of human A498 cells measured after 48 hrs by SRB assay
[20] = system: SK-MEL-28; assay: Growth inhibition of human SK-MEL-28 cells measured after 48 hrs by SRB assay
[21] = system: 786-0; assay: Growth inhibition of human 786-0 cells measured after 48 hrs by SRB assay
[22] = system: CAKI-1; assay: Growth inhibition of human CAKI-1 cells measured after 48 hrs by SRB assay
[23] = system: KM12; assay: Growth inhibition of human KM12 cells measured after 48 hrs by SRB assay
[24] = system: HOP-92; assay: Growth inhibition of human HOP-92 cells measured after 48 hrs by SRB assay
[25] = system: PC-3; assay: Growth inhibition of human PC-3 cells measured after 48 hrs by SRB assay
[26] = system: RXF 393; assay: Growth inhibition of human RXF 393 cells measured after 48 hrs by SRB assay
[27] = system: A549; assay: Growth inhibition of human A549 cells measured after 48 hrs by SRB assay
[28] = system: NCI-H522; assay: Growth inhibition of human NCI-H522 cells measured after 48 hrs by SRB assay
[29] = system: NCI/ADR-RES; assay: Growth inhibition of human NCI/ADR-RES cells measured after 48 hrs by SRB assay
[30] = system: HCC 2998; assay: Growth inhibition of human HCC 2998 cells measured after 48 hrs by SRB assay
[31] = system: MDA-MB-231; assay: Growth inhibition of human MDA-MB-231 cells measured after 48 hrs by SRB assay
[32] = system: SNB-75; assay: Growth inhibition of human SNB-75 cells measured after 48 hrs by SRB assay
[33] = system: IGROV-1; assay: Growth inhibition of human IGROV-1 cells measured after 48 hrs by SRB assay
[34] = system: SN12C; assay: Growth inhibition of human SN12C cells measured after 48 hrs by SRB assay
[35] = system: MOLT-4; assay: Growth inhibition of human MOLT-4 cells measured after 48 hrs by SRB assay
[36] = system: SK-MEL-2; assay: Growth inhibition of human SK-MEL-2 cells measured after 48 hrs by SRB assay
[37] = system: HL-60; assay: Growth inhibition of human HL-60 cells measured after 48 hrs by SRB assay
[38] = system: SW-620; assay: Growth inhibition of human SW-620 cells measured after 48 hrs by SRB assay
[39] = system: NCI-H322M; assay: Growth inhibition of human NCI-H322M cells measured after 48 hrs by SRB assay
[40] = system: SF-268; assay: Growth inhibition of human SF-268 cells measured after 48 hrs by SRB assay
[41] = system: M14; assay: Growth inhibition of human M14 cells measured after 48 hrs by SRB assay
[42] = system: T47D; assay: Growth inhibition of human T47D cells measured after 48 hrs by SRB assay
[43] = system: UACC-257; assay: Growth inhibition of human UACC-257 cells measured after 48 hrs by SRB assay
[44] = system: NCI-H460; assay: Growth inhibition of human NCI-H460 cells measured after 48 hrs by SRB assay
[45] = system: HCT-15; assay: Growth inhibition of human HCT-15 cells measured after 48 hrs by SRB assay
[46] = system: NCI-H226; assay: Growth inhibition of human NCI-H226 cells measured after 48 hrs by SRB assay
[47] = system: OVCAR-3; assay: Growth inhibition of human OVCAR-3 cells measured after 48 hrs by SRB assay
[48] = system: Malme-3M; assay: Growth inhibition of human Malme-3M cells measured after 48 hrs by SRB assay
[49] = system: HCT-116; assay: Growth inhibition of human HCT-116 cells measured after 48 hrs by SRB assay
[50] = system: UO-31; assay: Growth inhibition of human UO-31 cells measured after 48 hrs by SRB assay
[51] = system: SK-OV-3; assay: Growth inhibition of human SK-OV-3 cells measured after 48 hrs by SRB assay
[52] = system: SF-295; assay: Growth inhibition of human SF-295 cells measured after 48 hrs by SRB assay
[53] = system: SF-539; assay: Growth inhibition of human SF-539 cells measured after 48 hrs by SRB assay
[54] = system: SK-MEL-5; assay: Growth inhibition of human SK-MEL-5 cells measured after 48 hrs by SRB assay
[55] = system: NCI-H23; assay: Growth inhibition of human NCI-H23 cells measured after 48 hrs by SRB assay
[56] = system: UACC-62; assay: Growth inhibition of human UACC-62 cells measured after 48 hrs by SRB assay
[57] = system: MDA-MB-435; assay: Growth inhibition of human MDA-MB-435 cells measured after 48 hrs by SRB assay

CCO[C@@H]1C=C2CC[C@@H]3[C@H]([C@@H](O)C[C@]4(C)[C@@H](c5ccc(=O)oc5)CC[C@]34O)[C@@]2(C)CC1
GI50 [1]: 124 nM
GI50 [2]: 151 nM
GI50 [3]: 44 nM
GI50 [4]: 54 nM
GI50 [5]: 501 nM
GI50 [6]: 129 nM
GI50 [7]: 55 nM
GI50 [8]: 94 nM
GI50 [9]: 52 nM
GI50 [10]: 78 nM
GI50 [11]: 347 nM
GI50 [12]: 165 nM
GI50 [13]: 56 nM
GI50 [14]: 137 nM
GI50 [15]: 37 nM
GI50 [16]: 56 nM
GI50 [17]: 280 nM
GI50 [18]: 401 nM
GI50 [19]: 39 nM
GI50 [20]: 296 nM
GI50 [21]: 71 nM
GI50 [22]: 57 nM
GI50 [23]: 349 nM
GI50 [24]: 153 nM
GI50 [25]: 145 nM
GI50 [26]: 25 nM
GI50 [27]: 40 nM
GI50 [28]: 35 nM
GI50 [29]: 91 nM
GI50 [30]: 537 nM
GI50 [31]: 588 nM
GI50 [32]: 187 nM
GI50 [33]: 138 nM
GI50 [34]: 46 nM
GI50 [35]: 42 nM
GI50 [36]: 234 nM
GI50 [37]: 120 nM
GI50 [38]: 63 nM
GI50 [39]: 121 nM
GI50 [40]: 58 nM
GI50 [41]: 232 nM
GI50 [42]: 255 nM
GI50 [43]: 268 nM
GI50 [44]: 39 nM
GI50 [45]: 86 nM
GI50 [46]: 181 nM
GI50 [47]: 59 nM
GI50 [48]: 145 nM
GI50 [49]: 39 nM
GI50 [50]: 54 nM
GI50 [51]: 338 nM
GI50 [52]: 61 nM
GI50 [53]: 66 nM
GI50 [54]: 72 nM
GI50 [55]: 86 nM
GI50 [56]: 145 nM
GI50 [57]: 178 nM
